Results on one compound are retold here after article PMC10499793 (Nature Communications, 2023).

Settings in all cases: 4-nitrothiophenol as nucleophile; 400 μM thiamine; pH 7.2, 37 °C
One assay addresses T1, AcThi1 (Archangium violaceum, UniProt A0ACG8CQS0).
T1 construct: gene JRI60_22580
T1 sequence (A0ACG8CQS0 24-424): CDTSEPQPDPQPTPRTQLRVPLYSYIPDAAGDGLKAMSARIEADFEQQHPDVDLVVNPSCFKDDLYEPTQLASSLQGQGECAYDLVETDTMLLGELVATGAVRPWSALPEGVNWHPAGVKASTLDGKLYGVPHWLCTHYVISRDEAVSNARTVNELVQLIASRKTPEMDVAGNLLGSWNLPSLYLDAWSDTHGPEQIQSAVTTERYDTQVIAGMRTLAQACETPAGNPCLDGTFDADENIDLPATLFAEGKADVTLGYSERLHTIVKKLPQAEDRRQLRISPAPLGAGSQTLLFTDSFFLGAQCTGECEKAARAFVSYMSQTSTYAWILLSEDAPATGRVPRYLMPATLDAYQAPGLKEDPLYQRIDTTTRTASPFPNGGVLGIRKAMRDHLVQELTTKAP
Kind of assay: thiaminase I activity assay, 4-nitrothiophenol consumption at […] nm. The assay is classed as biochemical.

The target in the next assay is T2, MxThi1 (Myxococcus xanthus, UniProt Q1D3T2).
T2 construct: gene MXAN_4523
T2 sequence (Q1D3T2 36-418): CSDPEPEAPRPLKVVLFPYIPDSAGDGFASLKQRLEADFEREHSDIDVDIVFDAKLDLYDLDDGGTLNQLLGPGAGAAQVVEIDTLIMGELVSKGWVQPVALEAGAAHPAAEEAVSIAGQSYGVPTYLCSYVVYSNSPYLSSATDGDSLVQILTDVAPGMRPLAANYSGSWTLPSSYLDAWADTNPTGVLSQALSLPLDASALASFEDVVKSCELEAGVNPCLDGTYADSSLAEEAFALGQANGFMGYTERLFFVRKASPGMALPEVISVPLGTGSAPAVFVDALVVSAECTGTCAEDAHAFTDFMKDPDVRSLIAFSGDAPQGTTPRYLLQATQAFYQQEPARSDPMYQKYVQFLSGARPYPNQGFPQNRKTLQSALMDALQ
Described as above. It is filed as biochemical.

The target of another assay is T3, CbThi1 (Clostridium botulinum, UniProt A5HZW3).
T3 construct: gene CBO0770
T3 sequence (A5HZW3 32-404 limits assumed): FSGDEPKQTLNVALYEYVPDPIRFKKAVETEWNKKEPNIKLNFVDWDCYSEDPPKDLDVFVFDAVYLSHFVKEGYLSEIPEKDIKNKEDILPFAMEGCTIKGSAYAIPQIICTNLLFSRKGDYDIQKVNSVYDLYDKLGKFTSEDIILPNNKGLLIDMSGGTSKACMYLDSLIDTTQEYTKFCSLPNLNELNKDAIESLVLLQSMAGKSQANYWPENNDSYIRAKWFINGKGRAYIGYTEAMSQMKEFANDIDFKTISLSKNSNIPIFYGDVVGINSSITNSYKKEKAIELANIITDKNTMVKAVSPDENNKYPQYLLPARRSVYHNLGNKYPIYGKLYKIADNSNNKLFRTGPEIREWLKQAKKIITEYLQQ

For `Cc1ncc(C[n+]2csc(CCO)c2C)c(N)n1` [thiamine], the “thiaminase I activity assay, 4-nitrothiophenol consumption at 411 nm” value at AcThi1, on MxThi1 and at CbThi1 was “All these recombinant proteins exhibited thiaminase I activity” each time.
